ChEMBL document CHEMBL6177932 (J Med Chem, 2024)
The source made the active and inactive calls. No cut-off for these calls is given here.

Assays:
[1] = target: T1, Protein deacetylase HDAC6 (Mus musculus) (UniProt Q9Z2V5); experiment: Inhibition of HDAC6 in mouse 4T1 cells assessed as induction of tubulin acetylation at 10 uM measured after 6 hrs by Western blot analysis; format: cell-based
T1 sequence (whole entry): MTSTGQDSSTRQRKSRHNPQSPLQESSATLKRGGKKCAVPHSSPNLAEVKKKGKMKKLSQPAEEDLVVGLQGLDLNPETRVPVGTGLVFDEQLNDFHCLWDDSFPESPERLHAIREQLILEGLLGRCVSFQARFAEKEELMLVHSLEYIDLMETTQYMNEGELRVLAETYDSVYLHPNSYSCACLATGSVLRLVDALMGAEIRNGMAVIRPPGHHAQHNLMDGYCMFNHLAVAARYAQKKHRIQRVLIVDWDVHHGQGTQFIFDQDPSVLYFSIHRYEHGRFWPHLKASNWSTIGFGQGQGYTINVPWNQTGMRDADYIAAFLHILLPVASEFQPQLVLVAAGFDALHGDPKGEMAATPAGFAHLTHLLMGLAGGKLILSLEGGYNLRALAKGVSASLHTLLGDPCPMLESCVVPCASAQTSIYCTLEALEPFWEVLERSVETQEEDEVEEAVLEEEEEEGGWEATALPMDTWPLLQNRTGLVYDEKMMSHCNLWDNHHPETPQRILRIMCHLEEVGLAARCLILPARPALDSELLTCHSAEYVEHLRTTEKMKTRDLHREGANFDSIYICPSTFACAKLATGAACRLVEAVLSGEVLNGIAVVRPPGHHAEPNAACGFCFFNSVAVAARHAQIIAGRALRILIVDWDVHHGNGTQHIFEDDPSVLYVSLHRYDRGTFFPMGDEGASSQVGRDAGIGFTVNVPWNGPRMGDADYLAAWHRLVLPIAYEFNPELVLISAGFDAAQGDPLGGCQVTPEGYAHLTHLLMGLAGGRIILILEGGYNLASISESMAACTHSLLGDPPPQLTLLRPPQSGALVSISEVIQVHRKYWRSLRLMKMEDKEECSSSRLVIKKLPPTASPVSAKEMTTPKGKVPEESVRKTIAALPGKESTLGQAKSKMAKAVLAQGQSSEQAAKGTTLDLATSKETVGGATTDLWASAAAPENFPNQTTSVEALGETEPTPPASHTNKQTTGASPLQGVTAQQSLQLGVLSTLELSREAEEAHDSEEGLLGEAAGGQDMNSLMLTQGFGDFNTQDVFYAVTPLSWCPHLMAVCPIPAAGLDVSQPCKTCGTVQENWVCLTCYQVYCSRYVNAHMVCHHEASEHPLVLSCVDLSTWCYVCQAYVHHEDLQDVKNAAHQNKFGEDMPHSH

[2] = target: Vitamin D3 receptor (Mus musculus) (UniProt P48281); experiment: In vivo agonist activity at VDR in mouse B16-F10 cells implanted C57BL/6 mouse assessed as induction of VDR gene in tumor at 5 mg/kg, ip administered 2 times at 24 hrs interval by RT-qPCR analysis; settings: time 48.0 hrs
Mus musculus = experiment: Immunomodulatory activity in mouse 4T1 cells implanted BALB/c mouse assessed as reduction in total macrophage infiltration into tumors at 1.5 to 5 mg/kg, ip administered daily for 18 days by F4/80 staining based immunofluorescence microscopy; format: functional, organism-based; settings: dose 1.5-5 mg/kg, time 18.0 day
[3] = Toxicity in mouse B16-F10 cells implanted C57BL/6 mouse at 5 mg/kg, ip administered daily for 28 days; format: organism-based; settings: in vivo, time 28 day
B16-F10 [4] = experiment: Cytotoxicity against mouse B16-F10 cells assessed as reduction in cell viability at 0.01 to 100 uM measured after 24 hrs by RealTime-glo cell viability assay; format: functional, cell-based; settings: dose 0.01-100 µM
4T1 = experiment: Inhibition of class 1 HDAC in mouse 4T1 cells assessed as induction of H3K9 acetylation at 10 uM measured after 6 hrs by Western blot analysis; format: cell-based
B16-F10 [5] = experiment: Antitumor activity against mouse B16-F10 cells implanted in C57BL/6 mouse assessed as reduction in tumor burden at 5 mg/kg, ip administered every second day for 18 days; format: functional, organism-based; settings: time 18.0 day
4TO7 = experiment: Inhibition of class 1 HDAC in mouse 4TO7 cells assessed as induction of H3K27 acetylation at 10 uM measured after 6 hrs by Western blot analysis; format: cell-based
B16-F10 [6] = experiment: Inhibition of class 1 HDAC in mouse B16-F10 cells assessed as induction of H3K27 acetylation at 10 uM measured after 6 hrs by Western blot analysis; format: cell-based
B16-F10 [7] = experiment: Inhibition of class 1 HDAC in mouse B16-F10 cells assessed as induction of H3K9 acetylation at 10 uM measured after 6 hrs by Western blot analysis; format: cell-based
[8] = target: Vitamin D3 receptor (Mus musculus) (UniProt P48281); experiment: In vivo agonist activity at VDR in mouse B16-F10 cells implanted C57BL/6 mouse assessed as induction of Cyp24al gene in tumor at 5 mg/kg, ip administered 2 times at 24 hrs interval by RT-qPCR analysis; settings: time 48.0 hrs
[9] = Toxicity in 4T1 cells implanted BALB/c mouse assessed as stress at 1.5 to 5 mg/kg, ip administered daily for 18 days; format: organism-based; settings: in vivo, 432 h, dose 1.5-5 mg/kg, time 18 day

Vitamin D3 receptor (Mus musculus), sequence (P48281 whole entry, looked up): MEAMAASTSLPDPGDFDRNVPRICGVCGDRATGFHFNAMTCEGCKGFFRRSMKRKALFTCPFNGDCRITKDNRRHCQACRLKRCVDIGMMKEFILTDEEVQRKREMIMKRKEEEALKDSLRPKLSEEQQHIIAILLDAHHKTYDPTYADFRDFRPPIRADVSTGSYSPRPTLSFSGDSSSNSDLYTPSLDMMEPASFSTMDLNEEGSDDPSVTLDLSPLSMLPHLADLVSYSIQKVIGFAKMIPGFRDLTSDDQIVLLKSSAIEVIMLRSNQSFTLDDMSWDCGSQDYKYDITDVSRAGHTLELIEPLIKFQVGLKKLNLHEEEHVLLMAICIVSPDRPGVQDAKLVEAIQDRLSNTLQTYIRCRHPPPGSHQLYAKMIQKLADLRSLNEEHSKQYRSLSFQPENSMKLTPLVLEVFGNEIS

For CCC(CC)(c1ccc(C(=O)NCCCCC(=O)NO)cc1)c1ccc(OCC(O)C(C)(C)C)c(C)n1 (configuration not stated), the inhibition [1] was “Active; Most Efficacious Than Saha”, the Activity [2] was “Active” and the Activity (Mus musculus) was “Active; Significantly Reduced Macrophage Infiltration Into Tumor”. The Activity [3] was “Non-toxic”, the Activity (B16-F10 [4]) was “Active” and the inhibition (4T1) was “Active”. The Activity (B16-F10 [5]) was “Active”, the inhibition (4TO7) was “Active; Induced Higher Levels Of Acetylation Than Saha” and the inhibition (B16-F10 [6]) was “Active; Acetylation Was Comparable Or Greater Than Saha”. The inhibition (B16-F10 [7]) was “Active; Acetylation Was Comparable Or Greater Than Saha”, the Activity [8] was “Active” and the Activity [9] was “Non-toxic”.
